Data reported in patent US11168084B2, “Purine based compounds as toll-like receptor 9 antagonist” (COUNCIL OF SCIENTIFIC & INDUSTRIAL RESEARCH, priority 2017, dated 2021).

Target: T1, toll-like receptor 9 (TLR9) (Homo sapiens, UniProt Q9NR96)
T1 construct: we isolated PBMCs from venous blood collected from healthy donors using density gradient centrifugation; endogenous in cells; host or cells: primary human PBMC (plasmacytoid dendritic cells) from healthy donors
T1 sequence (Q9NR96 26-1032): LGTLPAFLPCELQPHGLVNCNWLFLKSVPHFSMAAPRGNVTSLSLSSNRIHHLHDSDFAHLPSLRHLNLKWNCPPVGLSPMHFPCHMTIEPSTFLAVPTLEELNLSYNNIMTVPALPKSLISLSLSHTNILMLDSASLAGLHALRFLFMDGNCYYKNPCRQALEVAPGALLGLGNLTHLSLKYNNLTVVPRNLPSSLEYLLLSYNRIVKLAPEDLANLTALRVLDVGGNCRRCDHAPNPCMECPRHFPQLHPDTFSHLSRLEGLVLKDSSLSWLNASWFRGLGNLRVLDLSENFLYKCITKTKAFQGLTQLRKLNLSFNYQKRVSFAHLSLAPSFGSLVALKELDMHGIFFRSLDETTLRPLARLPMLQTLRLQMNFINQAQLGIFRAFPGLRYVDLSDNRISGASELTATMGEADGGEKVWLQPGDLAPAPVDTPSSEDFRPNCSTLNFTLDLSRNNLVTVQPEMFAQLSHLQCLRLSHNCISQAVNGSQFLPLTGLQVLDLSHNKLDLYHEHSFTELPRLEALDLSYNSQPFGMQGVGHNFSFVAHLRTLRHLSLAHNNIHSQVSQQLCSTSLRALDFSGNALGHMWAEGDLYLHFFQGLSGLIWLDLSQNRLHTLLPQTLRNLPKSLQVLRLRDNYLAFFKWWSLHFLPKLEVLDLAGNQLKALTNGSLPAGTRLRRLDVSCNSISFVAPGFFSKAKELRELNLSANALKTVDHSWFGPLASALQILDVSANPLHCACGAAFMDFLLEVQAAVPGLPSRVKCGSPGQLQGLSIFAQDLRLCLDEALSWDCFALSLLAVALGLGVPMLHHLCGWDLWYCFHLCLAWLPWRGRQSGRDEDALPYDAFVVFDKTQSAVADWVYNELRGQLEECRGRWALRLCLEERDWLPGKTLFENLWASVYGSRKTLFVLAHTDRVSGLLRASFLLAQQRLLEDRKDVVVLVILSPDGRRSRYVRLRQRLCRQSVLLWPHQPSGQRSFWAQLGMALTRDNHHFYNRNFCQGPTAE
Experiment: Screening of TLR9 antagonistic activity: IFN-alpha production from human PBMC in response to CpGA (ELISA)
Format: cell-based
Details: TLR9 antagonism; Table 2 does not say which of the three TLR9 assays
From the text: The principle of the screening assay was designed based on the production of Type I interferons (IFN-alpha) from human PBMCs, which results almost exclusively from TLR9 triggering on the PDCs by type A CpG oligonucleotides (CpGA). PBMCs were isolated from venous blood collected from healthy donors using density gradient centrifugation.
A medium throughput biological assay based on toll-like receptor 9 activation has been designed in primary human immune cells to screen the synthesized small molecules with general formula (I) for toll-like receptor 9 (TLR9) antagonism. Among the immune cell subsets circulating in the peripheral blood, two cell subsets plasmacytoid dendritic cells (PDCs) and B lymphocytes has significant expression of TLR9. Plasmacytoid dendritic cells are capable of producing type I interferons (e.g. IFN-alpha) in response to TLR9 ligands. Type A and type B unmethylated cytosine-guanine rich DNA oligonucleotides (CpG oligonucleotides) are the bonafide ligands for TLR9.
In the screening assay we isolated PBMCs from venous blood collected from healthy donors using density gradient centrifugation. PBMCs were cultured the at 2-3*10^5 cells/200 ul/well in a 96 well plate. TLR9 agonist CpGA was added at 1 uM in presence of escalating doses of the synthesized small molecules (0 uM, 0.1 uM, 1 uM, 5 uM, 10 uM and 20 uM). The supernatants was collected after overnight culture from the culture wells and looked for IFN-alpha using enzyme linked immunosorbent assay (ELISA). […] For the biological validation of TLR9 antagonism the bona fide TLR9 agonist CpG oligonucleotides were used.

Compound	IC50
CCN1CCN(CCCn2cnc3c(N4CCN(C5CCCC5)CC4)nc(NCc4ccc(F)cc4)nc32)CC1 [Compound 25, 6-(4-cyclopentylpiperazin-1-yl)-9-(3-(4-ethylpiperazin-1-yl)propyl)-N-(4-fluorobenzyl)-9H-purin-2-amine]	254 nM
Iso-butyl(1-(6-(4-ethylpiperazin-1-yl)-9-(3-(4-ethylpiperazin-1-yl)propyl)-9H-purin-2-yl)amino)-1-oxo-3-phenylpropan-2-yl)carbamate [Compound 15]	470 nM
CCN1CCN(CCCn2cnc3c(N4CCN(C5CCCC5)CC4)nc(NCc4ccc(OC)cc4)nc32)CC1 [Compound 26, 6-(4-cyclopentylpiperazin-1-yl)-9-(3-(4-ethylpiperazin-1-yl)propyl)-N-(4-methoxybenzyl)-9H-purin-2-amine]	120 nM
CCN1CCN(CCCn2cnc3c(N4CCN(CC)CC4)nc(NCc4ccccc4)nc32)CC1 [Compound 8, N-benzyl-6-(4-ethylpiperazin-1-yl)-9-(3-(4-ethylpiperazin-1-yl)propyl)-9H-purin-2-amine]	140 nM
Nc1nc(N2CCN(C3CCCC3)CC2)c2ncn(CCCN3CCCC3)c2n1 [Compound 29, 6-(4-cyclopentylpiperazin-1-yl)-9-(3-(pyrrolidin-1-yl)propyl)-9H-purin-2-amine]	122 nM
CCN1CCN(CCCn2cnc3c(N4CCN(CC)CC4)nc(NCc4ccc(N(CC)CC)cc4)nc32)CC1 [Compound 7, N-(4-(diethylamino)benzyl)-6-(4-ethylpiperazin-1-yl)-9-(3-(4-ethylpiperazin-1-yl)propyl)-9H-purin-2-amine]	438 nM
CCN1CCN(CCCn2cnc3c(N4CCN(CC)CC4)nc(NCc4ccc(F)cc4)nc32)CC1 [Compound 6, 6-(4-ethylpiperazin-1-yl)-9-(3-(4-ethylpiperazin-1-yl)propyl)-N-(4-fluorobenzyl)-9H-purin-2-amine]	470 nM
CN(C)Cc1ccc(C(=O)Nc2nc(N3CCN(C4CCCC4)CC3)c3ncn(CCCN4CCCC4)c3n2)cc1 [Compound 31, N-(6-(4-cyclopentylpiperazin-1-yl)-9-(3-(pyrrolidin-1-yl)propyl)-9H-purin-2-yl)-4-((dimethylamino)methyl)benzamide]	5 nM
CCN1CCN(c2nc(NCc3ccc(OC)cc3)nc3c2ncn3CCCN2CCCC2)CC1 [Compound 34, 6-(4-ethylpiperazin-1-yl)-N-(4-methoxybenzyl)-9-(3-(pyrrolidin-1-yl)propyl)-9H-purin-2-amine]	80 nM
Fc1ccc(CNc2nc(N3CCN(C4CCCC4)CC3)c3ncn(CCCN4CCCC4)c3n2)cc1 [Compound 32, 6-(4-cyclopentylpiperazin-1-yl)-N-(4-fluorobenzyl)-9-(3-(pyrrolidin-1-yl)propyl)-9H-purin-2-amine]	100 nM
CCN1CCN(CCCn2cnc3c(N4CCN(C5CCCC5)CC4)nc(NCc4ccc(N(CC)CC)cc4)nc32)CC1 [Compound 24]	145 nM
CCN1CCN(CCCn2cnc3c(N4CCN(C(=O)C5CCCC5)CC4)nc(NCc4ccc(N(CC)CC)cc4)nc32)CC1 [Compound 38, Cyclopentyl(4-(2-(4-(diethylamino)benzylamino)-9-(3-(4-ethylpiperazin-1-yl)propyl)-9H-purin-6-yl)piperazin-1-yl)methanone]	8800 nM
CCN1CCN(CCCn2cnc3c(N4CCN(CC)CC4)nc(NC(=O)C4CCCN4)nc32)CC1 (stereo not shown) [Compound 12, N-(6-(4-ethylpiperazin-1-yl)-9-(3-(4-ethylpiperazin-1-yl)propyl)-9H-purin-2-yl) pyrrolidine-2-carboxamide]	378 nM
CCN1CCN(CCCn2cnc3c(N4CCN(CC)CC4)nc(N)nc32)CC1 [Compound 4, 6-(4-ethylpiperazin-1-yl)-9-(3-(4-ethylpiperazin-1-yl)propyl)-9H-purin-2-amine]	188 nM
CCN1CCN(CCCn2cnc3c(N4CCN(CC)CC4)nc(N4CCCC4)nc32)CC1 [Compound 9]	1830 nM
CCN1CCN(CCCn2cnc3c(N4CCN(C5CCCC5)CC4)nc(NC(=O)c4ccc(CN(C)C)cc4)nc32)CC1 [Compound 27, N-(6-(4-cyclopentylpiperazin-1-yl)-9-(3-(4-ethylpiperazin-1-yl)propyl)-9H-purin-2-yl)-4-((dimethylamino)methyl)benzamide]	56 nM
CCN1CCN(CCCn2cnc3c(N4CCN(CC)CC4)nc(NC(=O)c4ccccc4)nc32)CC1 [Compound 10, N-(6-(4-ethylpiperazin-1-yl)-9-(3-(4-ethylpiperazin-1-yl)propyl)-9H-purin-2-yl)benzamide]	339 nM
CCN1CCN(CCCn2cnc3c(N4CCN(CC)CC4)nc(NCc4ccc(OC)cc4)nc32)CC1 [Compound 5, 6-(4-ethylpiperazin-1-yl)-9-(3-(4-ethylpiperazin-1-yl)propyl)-N-(4-methoxybenzyl)-9H-purin-2-amine]	203 nM
COc1ccc(CNc2nc(N3CCN(C4CCCC4)CC3)c3ncn(CCCN4CCCC4)c3n2)cc1 [Compound 30, 6-(4-cyclopentylpiperazin-1-yl)-N-(4-methoxybenzyl)-9-(3-(pyrrolidin-1-yl)propyl)-9H-purin-2-amine]	241 nM
